# Test results reported in US11753407B2, “Compounds for treating spinal muscular atrophy” (PTC Therapeutics, Inc., priority 2012, dated 2023).
# Columns and labels:
# [1] = test system: SMN2 minigene mRNA (SMN2-A minigene) in HEK293H cells; experiment: SMN2 minigene mRNA splicing RT-qPCR assay in cultured cells; type: cell-based, human; conditions: Homo sapiens, HEK293-H; concentration increasing full length SMN2 mRNA 1.5-fold relative to vehicle-treated cells; HEK293H cells with SMN2-A minigene, 24 hours, 7-point concentration data; read-out: EC1.5x for production of full length SMN2 mRNA
# In short: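 Read-out: minigene-specific full-length (exon 7-included) SMN2 mRNA by one-step multiplex RT-qPCR, normalized to GAPDH and divided by vehicle-treated level. Stable SMN2-A minigene HEK293H cells, 24 h compound exposure, 7 concentrations in duplicate. EC1.5× = concentration raising FL mRNA 1.5-fold.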
# [2] = test system: Smn protein in SMA patient fibroblast cells (GM03813); experiment: Smn protein assay in cultured cells (SMN HTRF); type: cell-based, human; conditions: SMA patient fibroblast cells, 48 hours; for EC1.5x for Smn protein expression: 7-point concentration curve, SMN HTRF, concentration producing 1.5 times Smn protein vs DMSO vehicle control; for maximum fold (Fold) increase of Smn protein: 7-point concentration data, fold relative to vehicle control
# In short: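 Read-out: HTRF 665/620 nm ratio, blank-subtracted as ΔF, then expressed as fold over DMSO vehicle. Fibroblasts from SMA patients were exposed to compounds for 48 h (7 points, 3.16-fold steps, triplicates). Values are EC1.5× and maximum fold Smn increase.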
melting point [°C],Compound,EC (1.5-fold increase) [1] [µM],EC1.5x for Smn protein expression [2],maximum fold (Fold) increase of Smn protein [2]
175 to 180,"Cn1cc2cc(-c3cc(=O)n4cc(N5CCNCC5)ccc4n3)ccc2n1 [Compound 137, 2-(2-methyl-2H-indazol-5-yl)-7-(piperazin-1-yl)-4H-pyrido[1,2-a]pyrimidin-4-one]",0.1 to 0.3,*** (an EC1.5× between >0.3 μM and ≤1 μM is indicated by three stars (***)),***** (a fold increase >1.65 is indicated by five stars (*****))
168 to 170,"COc1cc(F)cc(-c2cc(=O)n3cc(N4CCNCC4)ccc3n2)c1 [Compound 139, 2-(3-fluoro-5-methoxyphenyl)-7-(piperazin-1-yl)-4H-pyrido[1,2-a]pyrimidin-4-one]",1 to 3,–,*** (a fold increase between >1.35 and ≤1.5 is indicated by three stars (***))
154 to 156,"COc1cc(F)cc(-c2cc(=O)n3cc(N4CCN[C@@H](C)C4)ccc3n2)c1 [Compound 140, 2-(3-fluoro-5-methoxyphenyl)-7-[(3S)-3-methylpiperazin-1-yl]-4H-pyrido[1,2-a]pyrimidin-4-one]",1 to 3,–,*** (a fold increase between >1.35 and ≤1.5 is indicated by three stars (***))
198 to 203,"COc1ccc(-c2cc(=O)n3cc(N4CCNCC4)ccc3n2)cc1C [Compound 149, 2-(4-methoxy-3-methylphenyl)-7-(piperazin-1-yl)-4H-pyrido[1,2-a]pyrimidin-4-one]",0.3 to 1,–,** (a fold increase between >1.2 and ≤1.35 is indicated by two stars (**))
224 to 231,"N#Cc1cccc(-c2cc(=O)n3cc(N4CCNCC4)ccc3n2)c1 [Compound 150, 3-[4-oxo-7-(piperazin-1-yl)-4H-pyrido[1,2-a]pyrimidin-2-yl]benzonitrile]",0.3 to 1,** (an EC1.5× between >1 μM and ≤3 μM is indicated by two stars (**)),**** (a fold increase between >1.5 and ≤1.65 is indicated by four stars (****))
191 to 197,"COc1ccc(-c2cc(=O)n3cc(N4CCNCC4)ccc3n2)cc1C#N [Compound 151, 2-methoxy-5-[4-oxo-7-(piperazin-1-yl)-4H-pyrido[1,2-a]pyrimidin-2-yl]benzonitrile]",0.1 to 0.3,–,*** (a fold increase between >1.35 and ≤1.5 is indicated by three stars (***))
259 to 266,"O=c1cc(-c2ccc(O)c(F)c2)nc2ccc(N3CCNCC3)cn12 [Compound 152, 2-(3-fluoro-4-hydroxyphenyl)-7-(piperazin-1-yl)-4H-pyrido[1,2-a]pyrimidin-4-one]",0.1 to 0.3,**** (an EC1.5x≤0.3 μM is indicated by four stars (****)),***** (a fold increase >1.65 is indicated by five stars (*****))
178 to 183,"Cc1nc2cc(-c3cc(=O)n4cc(N5CCNCC5)ccc4n3)ccc2o1 [Compound 155, 2-(2-methyl-1,3-benzoxazol-5-yl)-7-(piperazin-1-yl)-4H-pyrido[1,2-a]pyrimidin-4-one]",0.1 to 0.3,–,** (a fold increase between >1.2 and ≤1.35 is indicated by two stars (**))
174 to 176,"Cc1ccc(-c2cc(=O)n3cc(N4CCNCC4)ccc3n2)cc1F [Compound 157, 2-(3-fluoro-4-methylphenyl)-7-(piperazin-1-yl)-4H-pyrido[1,2-a]pyrimidin-4-one]",1 to 3,–,** (a fold increase between >1.2 and ≤1.35 is indicated by two stars (**))

# The remaining lines, values behind:
Compound,melting point [°C],EC (1.5-fold increase) [1] [µM],EC1.5x for Smn protein expression [2],maximum fold (Fold) increase of Smn protein [2]
"C[C@H]1CN(c2ccc3nc(-c4ccc5nn(C)cc5c4)cc(=O)n3c2)CCN1 [Compound 138, 2-(2-methyl-2H-indazol-5-yl)-7-[(3S)-3-methylpiperazin-1-yl]-4H-pyrido[1,2-a]pyrimidin-4-one]",166 to 170,0.1 to 0.3,*** (an EC1.5× between >0.3 μM and ≤1 μM is indicated by three stars (***)),***** (a fold increase >1.65 is indicated by five stars (*****))
"Cc1cn2cc(-c3cc(=O)n4cc(N5CCNCC5)ccc4n3)cc(C)c2n1 [Compound 141, 2-(2,8-dimethylimidazo[1,2-a]pyridin-6-yl)-7-(piperazin-1-yl)-4H-pyrido[1,2-a]pyrimidin-4-one]",270 to 274,< 0.1,**** (an EC1.5x≤0.3 μM is indicated by four stars (****)),***** (a fold increase >1.65 is indicated by five stars (*****))
"COc1ccc(-c2cc(=O)n3cc(N4CCN[C@@H](C)C4)cc(C)c3n2)cc1OC [Compound 142, 2-(3,4-dimethoxyphenyl)-9-methyl-7-[(3S)-3-methylpiperazin-1-yl]-4H-pyrido[1,2-a]pyrimidin-4-one]",176 to 182,0.3 to 1,–,*** (a fold increase between >1.35 and ≤1.5 is indicated by three stars (***))
"COc1ccc(-c2cc(=O)n3cc(N4CCN(O)CC4)ccc3n2)cc1OC [Compound 146, 2-(3,4-dimethoxyphenyl)-7-(4-hydroxypiperazin-1-yl)-4H-pyrido[1,2-a]pyrimidin-4-one]",202 to 204,1 to 3,–,* (A maximum fold increase of ≤1.2 is indicated by one star (*))
"COc1ccc(-c2cc(=O)n3cc(N4CC[C@H](N(C)C)C4)ccc3n2)cc1OC [Compound 147, 2-(3,4-dimethoxyphenyl)-7-[(3S)-3-(dimethylamino)pyrrolidin-1-yl]-4H-pyrido[1,2-a]pyrimidin-4-one]",156 to 158,1 to 3,–,* (A maximum fold increase of ≤1.2 is indicated by one star (*))
"COc1ccc(-c2cc(=O)n3cc(N4CCC(N(C)C)CC4)ccc3n2)cc1OC [Compound 148, 2-(3,4-dimethoxyphenyl)-7-[4-(dimethylamino)piperidin-1-yl]-4H-pyrido[1,2-a]pyrimidin-4-one]",158 to 161,0.1 to 0.3,** (an EC1.5× between >1 μM and ≤3 μM is indicated by two stars (**)),*** (a fold increase between >1.35 and ≤1.5 is indicated by three stars (***))
"O=c1cc(-c2ccc(OCC(F)(F)F)c(F)c2)nc2ccc(N3CCNCC3)cn12 [Compound 154, 2-[3-fluoro-4-(2,2,2-trifluoroethoxy)phenyl]-7-(piperazin-1-yl)-4H-pyrido[1,2-a]pyrimidin-4-one]",198 to 201,1 to 3,–,* (A maximum fold increase of ≤1.2 is indicated by one star (*))
"Cc1ccc(-c2cc(=O)n3cc(N4CCN[C@@H](C)C4)ccc3n2)cc1F [Compound 158, 2-(3-fluoro-4-methylphenyl)-7-[(3S)-3-methylpiperazin-1-yl]-4H-pyrido[1,2-a]pyrimidin-4-one]",175 to 178,1 to 3,–,* (A maximum fold increase of ≤1.2 is indicated by one star (*))
"COc1ccc(-c2cc(=O)n3cc(N4CC[C@H](N)C4)ccc3n2)cc1OC [Compound 159, 7-[(3S)-3-aminopyrrolidin-1-yl]-2-(3,4-dimethoxyphenyl)-4H-pyrido[1,2-a]pyrimidin-4-one]",148 to 151,1 to 3,–,*** (a fold increase between >1.35 and ≤1.5 is indicated by three stars (***))
"Cc1nc2cc(-c3cc(=O)n4cc(N5CCCNCC5)ccc4n3)ccc2s1 [Compound 161, 7-(1,4-diazepan-1-yl)-2-(2-methyl-1,3-benzothiazol-5-yl)-4H-pyrido[1,2-a]pyrimidin-4-one]",208 to 212,0.3 to 1,** (an EC1.5× between >1 μM and ≤3 μM is indicated by two stars (**)),*** (a fold increase between >1.35 and ≤1.5 is indicated by three stars (***))
"Cc1csc(-c2cc(=O)n3cc(N4CCN[C@@H](C)C4)ccc3n2)n1 [Compound 162, 7-[(3S)-3-methylpiperazin-1-yl]-2-(4-methyl-1,3-thiazol-2-yl)-4H-pyrido[1,2-a]pyrimidin-4-one]",225 to 230,0.3 to 1,** (an EC1.5× between >1 μM and ≤3 μM is indicated by two stars (**)),**** (a fold increase between >1.5 and ≤1.65 is indicated by four stars (****))
"COc1ccc(-c2cc(=O)n3cc(N4CC[C@H](NC(C)C)C4)ccc3n2)cc1OC [Compound 165, 2-(3,4-dimethoxyphenyl)-7-[(3S)-3-(propan-2-ylamino)pyrrolidin-1-yl]-4H-pyrido[1,2-a]pyrimidin-4-one]",169 to 172,1 to 3,–,** (a fold increase between >1.2 and ≤1.35 is indicated by two stars (**))
